What was measured:
[1] = tested on: Huh7; assay: MTT assay; assay type: cell-based; conditions: Homo sapiens, Huh-7, Huh7, 48 h, read-out: IC50 (μM) ± SD Huh7
Method: (§1) Cells at a density of 4×10^3 cells/well were inoculated into 96-well plates for overnight culture at 37°C. […] Then, 100 μL of a 0.5 mg/mL MTT solution was pipetted into each well, and the incubation was prolonged for 4 h, resulting in the formation of a purple precipitate. Afterward, 200 μL of DMSO was added to each well, and the plate was vortexed for 10 min. The absorbance at 570 nm was determined with a Synergy 4 microplate reader (BioTek, United States). Each experiment was performed three times under the same conditions.

[2] = tested on: Hep3B; assay: MTT assay; assay type: cell-based; conditions: Homo sapiens, 48 h, read-out: IC50 (μM) ± SD Hep3B
Method: as §1

[3] = tested on: HepG2/MDR; assay: MTT assay; assay type: cell-based; conditions: Homo sapiens, multidrug-resistant HepG2/MDR, 48 h, read-out: IC50 (μM) ± SD HepG2/MDR
Method: as §1

[4] = tested on: normal human liver cell line L02; assay: MTT assay; assay type: cell-based; conditions: normal liver cell line L02, 48 h
Method: as §1

[5] = tested on: HepG2; assay: MTT assay; assay type: cell-based; conditions: Homo sapiens, HepG2, 48 h, read-out: IC50 (μM) ± SD HepG2
Method: as §1

[6] = tested on: SNU449; assay: MTT assay; assay type: cell-based; conditions: Homo sapiens, SNU-449, SNU449, 48 h, read-out: IC50 (μM) ± SD SNU449
Method: as §1

[7] = biological target: T1, DDR2 (Homo sapiens, UniProt Q16832); assay: SelectScreen kinase selectivity assay; assay type: biochemical
T1 construct: purchased Thermo Fisher Scientific (SelectScreen service)
T1 sequence (Q16832 22-855): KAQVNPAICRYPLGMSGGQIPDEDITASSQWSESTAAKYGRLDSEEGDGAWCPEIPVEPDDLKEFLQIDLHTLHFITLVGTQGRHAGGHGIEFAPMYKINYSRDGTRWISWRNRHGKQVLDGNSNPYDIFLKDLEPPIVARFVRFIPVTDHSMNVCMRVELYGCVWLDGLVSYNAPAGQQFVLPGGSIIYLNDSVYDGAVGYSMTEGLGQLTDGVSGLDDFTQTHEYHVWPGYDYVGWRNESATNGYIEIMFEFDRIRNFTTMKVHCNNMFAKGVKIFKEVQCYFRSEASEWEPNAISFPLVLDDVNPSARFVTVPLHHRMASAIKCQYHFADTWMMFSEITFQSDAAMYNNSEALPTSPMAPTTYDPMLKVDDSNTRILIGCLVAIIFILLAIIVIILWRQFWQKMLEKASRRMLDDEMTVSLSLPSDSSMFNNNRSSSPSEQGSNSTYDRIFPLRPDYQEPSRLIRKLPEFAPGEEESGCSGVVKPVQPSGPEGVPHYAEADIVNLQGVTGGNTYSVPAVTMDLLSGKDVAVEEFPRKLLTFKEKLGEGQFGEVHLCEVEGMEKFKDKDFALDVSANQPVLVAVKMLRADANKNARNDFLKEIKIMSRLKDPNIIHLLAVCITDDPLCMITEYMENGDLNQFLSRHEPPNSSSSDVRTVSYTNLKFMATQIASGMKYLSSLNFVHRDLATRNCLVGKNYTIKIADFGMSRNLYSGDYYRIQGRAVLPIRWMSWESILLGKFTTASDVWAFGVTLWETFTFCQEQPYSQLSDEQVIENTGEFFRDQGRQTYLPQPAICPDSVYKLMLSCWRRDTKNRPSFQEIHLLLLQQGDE
Method: (§2) The kinase selectivity analysis of PKHD-5 was performed using the SelectScreen kinase analysis service provided by Thermo Fisher Scientific. The experiment initially involved the preparation of a series of inhibitor solutions at varying concentrations, which were then reacted with various kinase targets under standardized conditions to calculate the percentage inhibition for each test solution. Ultimately, the IC50 values were calculated based on the concentration-inhibition curves by fitting a four-parameter logistic curve, thereby assessing the potency and selectivity of the inhibitors. The analysis results are detailed in Supplementary Table S1.

[8] = biological target: T2, EPHA7 (Homo sapiens, UniProt Q15375); assay: SelectScreen kinase selectivity assay; assay type: biochemical
T2 construct: purchased Thermo Fisher Scientific (SelectScreen service)
Method: as §2

[9] = biological target: T3, MST1R (Homo sapiens, UniProt Q04912); assay: SelectScreen kinase selectivity assay; assay type: biochemical
T3 construct: purchased Thermo Fisher Scientific (SelectScreen service)
Method: as §2

[10] = biological target: T4, BTK (Homo sapiens, UniProt Q06187); assay: SelectScreen kinase selectivity assay; assay type: biochemical
T4 construct: purchased Thermo Fisher Scientific (SelectScreen service)
Method: as §2

[11] = biological target: T5, PLK2 (Homo sapiens, UniProt Q9NYY3); assay: SelectScreen kinase selectivity assay; assay type: biochemical
T5 construct: purchased Thermo Fisher Scientific (SelectScreen service)
T5 sequence (Q9NYY3 whole entry): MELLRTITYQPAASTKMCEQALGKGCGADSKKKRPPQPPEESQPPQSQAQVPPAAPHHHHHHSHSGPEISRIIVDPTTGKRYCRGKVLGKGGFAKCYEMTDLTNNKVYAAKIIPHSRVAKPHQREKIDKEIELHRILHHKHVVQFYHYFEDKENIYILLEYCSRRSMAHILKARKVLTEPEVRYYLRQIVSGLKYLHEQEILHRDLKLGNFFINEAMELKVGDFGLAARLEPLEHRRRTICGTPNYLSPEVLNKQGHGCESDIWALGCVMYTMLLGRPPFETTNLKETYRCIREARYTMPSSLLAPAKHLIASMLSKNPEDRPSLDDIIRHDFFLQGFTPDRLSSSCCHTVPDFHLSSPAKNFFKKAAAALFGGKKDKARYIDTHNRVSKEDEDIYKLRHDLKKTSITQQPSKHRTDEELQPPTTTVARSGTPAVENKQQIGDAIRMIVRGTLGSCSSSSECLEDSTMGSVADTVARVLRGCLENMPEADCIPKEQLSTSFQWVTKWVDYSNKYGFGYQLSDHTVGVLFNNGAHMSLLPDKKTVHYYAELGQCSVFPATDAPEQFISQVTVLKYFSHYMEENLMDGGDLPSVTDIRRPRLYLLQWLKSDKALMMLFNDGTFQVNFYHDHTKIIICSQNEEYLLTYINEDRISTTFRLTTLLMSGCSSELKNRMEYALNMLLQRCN
Method: as §2

[12] = biological target: T6, NTRK2 (Homo sapiens, UniProt Q16620); assay: SelectScreen kinase selectivity assay; assay type: biochemical
T6 construct: purchased Thermo Fisher Scientific (SelectScreen service)
Method: as §2

[13] = biological target: T7, ERBB2 (Homo sapiens, UniProt P04626); assay: SelectScreen kinase selectivity assay; assay type: biochemical
T7 construct: purchased Thermo Fisher Scientific (SelectScreen service)
Method: as §2

[14] = biological target: T8, MET (Homo sapiens, UniProt P08581); assay: SelectScreen kinase selectivity assay; assay type: biochemical
T8 construct: purchased Thermo Fisher Scientific (SelectScreen service)
Method: as §2

[15] = biological target: T9, EPHB2 (Homo sapiens, UniProt P29323); assay: SelectScreen kinase selectivity assay; assay type: biochemical
T9 construct: purchased Thermo Fisher Scientific (SelectScreen service)
Method: as §2

[16] = biological target: T10, ABL1 (Homo sapiens, UniProt P00519); assay: SelectScreen kinase selectivity assay; assay type: biochemical
T10 construct: purchased Thermo Fisher Scientific (SelectScreen service)
Method: as §2

[17] = biological target: T11, NTRK1 (Homo sapiens, UniProt P04629); assay: SelectScreen kinase selectivity assay; assay type: biochemical
T11 construct: purchased Thermo Fisher Scientific (SelectScreen service)
Method: as §2

[18] = biological target: T12, EPHA2 (Homo sapiens, UniProt P29317); assay: SelectScreen kinase selectivity assay; assay type: biochemical
T12 construct: purchased Thermo Fisher Scientific (SelectScreen service)
Method: as §2

[19] = biological target: T13, KIT (Homo sapiens, UniProt P10721); assay: SelectScreen kinase selectivity assay; assay type: biochemical
T13 construct: purchased Thermo Fisher Scientific (SelectScreen service)
Method: as §2

[20] = biological target: T14, JAK3 (Homo sapiens, UniProt P52333); assay: SelectScreen kinase selectivity assay; assay type: biochemical
T14 construct: purchased Thermo Fisher Scientific (SelectScreen service)
Method: as §2

[21] = biological target: T15, MERTK (Homo sapiens, UniProt Q12866); assay: SelectScreen kinase selectivity assay; assay type: biochemical
T15 construct: purchased Thermo Fisher Scientific (SelectScreen service)
T15 sequence (Q12866 21-999): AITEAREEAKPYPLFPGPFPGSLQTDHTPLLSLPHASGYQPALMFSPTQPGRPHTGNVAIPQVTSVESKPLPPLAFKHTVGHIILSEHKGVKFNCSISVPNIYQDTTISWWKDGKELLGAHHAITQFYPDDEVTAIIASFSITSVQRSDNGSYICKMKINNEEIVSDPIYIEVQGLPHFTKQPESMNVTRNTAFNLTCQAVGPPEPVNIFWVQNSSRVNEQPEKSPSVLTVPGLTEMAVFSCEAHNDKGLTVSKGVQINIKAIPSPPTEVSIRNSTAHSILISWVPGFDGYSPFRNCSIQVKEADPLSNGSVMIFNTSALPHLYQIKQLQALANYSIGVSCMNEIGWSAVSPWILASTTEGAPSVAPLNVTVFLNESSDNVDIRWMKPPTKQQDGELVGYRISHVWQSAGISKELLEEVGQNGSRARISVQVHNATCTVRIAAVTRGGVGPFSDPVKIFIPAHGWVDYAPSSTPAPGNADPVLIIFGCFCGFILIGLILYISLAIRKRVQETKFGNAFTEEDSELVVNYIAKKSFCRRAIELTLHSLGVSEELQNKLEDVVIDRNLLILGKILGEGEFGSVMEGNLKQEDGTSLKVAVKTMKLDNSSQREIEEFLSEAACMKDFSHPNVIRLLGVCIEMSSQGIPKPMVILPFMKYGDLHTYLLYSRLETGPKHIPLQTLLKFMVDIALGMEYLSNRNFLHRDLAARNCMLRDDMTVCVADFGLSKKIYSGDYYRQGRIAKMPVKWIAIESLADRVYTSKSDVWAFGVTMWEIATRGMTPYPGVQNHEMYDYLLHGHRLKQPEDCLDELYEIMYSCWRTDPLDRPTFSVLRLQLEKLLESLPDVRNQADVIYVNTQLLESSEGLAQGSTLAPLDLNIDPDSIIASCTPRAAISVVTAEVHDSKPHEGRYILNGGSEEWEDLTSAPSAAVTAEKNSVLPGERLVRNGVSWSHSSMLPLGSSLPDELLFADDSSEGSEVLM
Method: as §2

[22] = biological target: T16, JAK1 (Homo sapiens, UniProt P23458); assay: SelectScreen kinase selectivity assay; assay type: biochemical
T16 construct: purchased Thermo Fisher Scientific (SelectScreen service)
T16 sequence (P23458 whole entry): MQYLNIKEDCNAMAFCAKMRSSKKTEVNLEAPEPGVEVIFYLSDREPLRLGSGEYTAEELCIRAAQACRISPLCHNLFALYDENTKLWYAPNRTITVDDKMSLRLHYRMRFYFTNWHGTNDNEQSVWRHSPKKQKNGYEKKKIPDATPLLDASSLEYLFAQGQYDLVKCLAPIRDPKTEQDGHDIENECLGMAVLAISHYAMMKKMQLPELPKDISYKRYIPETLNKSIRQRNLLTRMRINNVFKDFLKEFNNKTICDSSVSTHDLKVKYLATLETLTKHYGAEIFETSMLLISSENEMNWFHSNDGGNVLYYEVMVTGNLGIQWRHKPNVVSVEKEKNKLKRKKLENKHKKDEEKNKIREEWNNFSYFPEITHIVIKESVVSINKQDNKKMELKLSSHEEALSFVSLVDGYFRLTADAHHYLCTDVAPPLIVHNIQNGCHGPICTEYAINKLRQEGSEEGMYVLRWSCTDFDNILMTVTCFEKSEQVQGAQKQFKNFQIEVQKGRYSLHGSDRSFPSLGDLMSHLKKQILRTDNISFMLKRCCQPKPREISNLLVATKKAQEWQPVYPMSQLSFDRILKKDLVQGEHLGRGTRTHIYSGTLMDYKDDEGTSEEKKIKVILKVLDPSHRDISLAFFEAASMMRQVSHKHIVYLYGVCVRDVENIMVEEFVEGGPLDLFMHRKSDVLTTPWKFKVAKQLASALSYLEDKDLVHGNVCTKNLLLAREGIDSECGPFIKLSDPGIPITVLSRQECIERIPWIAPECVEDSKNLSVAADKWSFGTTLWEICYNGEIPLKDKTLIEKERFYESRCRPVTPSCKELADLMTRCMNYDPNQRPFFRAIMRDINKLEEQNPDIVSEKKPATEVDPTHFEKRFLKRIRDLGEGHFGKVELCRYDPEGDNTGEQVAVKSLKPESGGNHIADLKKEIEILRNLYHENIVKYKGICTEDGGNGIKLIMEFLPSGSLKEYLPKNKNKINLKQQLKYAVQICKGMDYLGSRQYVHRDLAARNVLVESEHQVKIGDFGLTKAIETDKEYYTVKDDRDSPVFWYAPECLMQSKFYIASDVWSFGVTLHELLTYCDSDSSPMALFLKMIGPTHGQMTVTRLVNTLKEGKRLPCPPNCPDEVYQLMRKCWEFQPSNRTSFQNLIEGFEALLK
Method: as §2

[23] = biological target: T17, PLK3 (Homo sapiens, UniProt Q9H4B4); assay: SelectScreen kinase selectivity assay; assay type: biochemical
T17 construct: purchased Thermo Fisher Scientific (SelectScreen service)
Method: as §2

[24] = biological target: T18, ZAP70 (Homo sapiens, UniProt P43403); assay: SelectScreen kinase selectivity assay; assay type: biochemical
T18 construct: purchased Thermo Fisher Scientific (SelectScreen service)
Method: as §2

[25] = biological target: T19, LYN (Homo sapiens, UniProt P07948); assay: SelectScreen kinase selectivity assay; assay type: biochemical
T19 construct: purchased Thermo Fisher Scientific (SelectScreen service)
T19 sequence (P07948 whole entry): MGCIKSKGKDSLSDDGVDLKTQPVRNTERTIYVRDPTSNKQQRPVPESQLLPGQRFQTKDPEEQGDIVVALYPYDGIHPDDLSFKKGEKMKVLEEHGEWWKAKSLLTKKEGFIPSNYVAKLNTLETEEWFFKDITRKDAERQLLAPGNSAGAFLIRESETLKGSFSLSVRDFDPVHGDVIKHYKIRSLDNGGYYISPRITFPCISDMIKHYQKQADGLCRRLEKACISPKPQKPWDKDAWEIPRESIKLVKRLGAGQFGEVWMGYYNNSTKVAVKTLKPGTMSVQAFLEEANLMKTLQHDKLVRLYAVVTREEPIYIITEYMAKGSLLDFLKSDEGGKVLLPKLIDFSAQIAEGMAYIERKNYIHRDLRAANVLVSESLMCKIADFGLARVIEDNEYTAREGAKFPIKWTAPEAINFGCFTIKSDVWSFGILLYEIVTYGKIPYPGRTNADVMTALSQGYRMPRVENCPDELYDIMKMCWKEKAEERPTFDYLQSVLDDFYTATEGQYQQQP
Method: as §2

[26] = biological target: T20, DDR1 (Homo sapiens, UniProt Q08345); assay: SelectScreen kinase selectivity assay; assay type: biochemical
T20 construct: purchased Thermo Fisher Scientific (SelectScreen service)
T20 sequence (Q08345 19-913): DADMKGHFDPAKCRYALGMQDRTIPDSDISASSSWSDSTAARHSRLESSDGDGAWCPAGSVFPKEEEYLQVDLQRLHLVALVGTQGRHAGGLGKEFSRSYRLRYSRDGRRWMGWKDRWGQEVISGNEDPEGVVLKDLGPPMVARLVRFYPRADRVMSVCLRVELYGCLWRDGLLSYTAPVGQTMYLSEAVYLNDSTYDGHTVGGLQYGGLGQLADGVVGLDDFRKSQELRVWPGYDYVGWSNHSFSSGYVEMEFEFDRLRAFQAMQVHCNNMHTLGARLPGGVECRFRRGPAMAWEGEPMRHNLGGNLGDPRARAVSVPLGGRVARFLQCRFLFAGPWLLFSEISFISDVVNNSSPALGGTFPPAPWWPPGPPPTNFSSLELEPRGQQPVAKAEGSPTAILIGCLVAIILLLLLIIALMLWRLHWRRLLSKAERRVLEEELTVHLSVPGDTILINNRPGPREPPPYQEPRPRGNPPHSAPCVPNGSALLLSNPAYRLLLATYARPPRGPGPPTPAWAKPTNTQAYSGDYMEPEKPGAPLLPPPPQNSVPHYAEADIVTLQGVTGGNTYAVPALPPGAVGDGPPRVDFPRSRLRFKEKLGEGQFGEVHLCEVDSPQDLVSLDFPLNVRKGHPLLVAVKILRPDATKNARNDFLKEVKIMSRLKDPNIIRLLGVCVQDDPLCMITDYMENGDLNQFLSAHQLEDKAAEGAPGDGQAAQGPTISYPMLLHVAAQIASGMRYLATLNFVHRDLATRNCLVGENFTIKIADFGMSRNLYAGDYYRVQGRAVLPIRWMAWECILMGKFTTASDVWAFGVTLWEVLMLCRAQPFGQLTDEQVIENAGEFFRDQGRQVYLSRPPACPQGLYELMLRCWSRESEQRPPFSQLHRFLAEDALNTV
Method: as §2

[27] = In vivo pharmacokinetics; conditions: BALB/c, mouse, plasma, mice, 5 mg/kg
Method: In the pharmacokinetic (PK) assessment of PKHD-5, BALB/c mice were utilized as the experimental model. PKHD-5 was administered either intraperitoneally or orally at a dosage of 5 mg/kg. Serial blood samples (0.25 mL) were collected at 0.25, 0.5, 1, 2, 4, 8, 16, and 24 h post-treatment. Each plasma sample (50 μL) underwent protein precipitation with a 1:1 mixture of methanol and acetonitrile (200 μL) and an internal standard. After vortexing for 5 min, the samples were centrifuged at 12,000 rpm for 5 min, yielding a supernatant (60 μL) for LC-MS/MS analysis. The data obtained were analyzed using Phoenix software to determine the PK profile of PKHD-5 in the mouse model.

[28] = tested on: HepG2 cells; assay: RT-PCR analysis; assay type: cell-based, human
Method: Total RNA was extracted from cells using Trizol reagent (Invitrogen, Carlsbad, CA) and reverse transcribed into cDNA with the PrimeScript RT reagent kit (Takara Bio, Otsu, Japan). RT-PCR was performed on the Mx3000P system (Agilent Technologies, Santa Clara, CA) with TB Green Premix Ex Taq II (Takara Bio). Relative gene expression was determined by the 2^−ΔΔCt method.

Cc1ccc(O)c(C)c1-n1c(N)c(C(N)=O)c2cc(CCCCCC(=O)NO)c(C)nc21 [PKHD-5]
IC50 [1]: 0.47 ± 0.04 µM | IC50 [2]: 0.38 ± 0.05 µM | IC50 [3]: 0.92 ± 0.05 µM | IC50 [4]: > 100 µM | IC50 [5]: 0.19 ± 0.03 µM | IC50 [6]: 0.59 ± 0.06 µM | IC50 [7]: > 50 µM | IC50 [8]: > 50 µM | IC50 [9]: > 50 µM | IC50 [10]: > 50 µM | IC50 [11]: > 50 µM | IC50 [12]: > 50 µM | IC50 [13]: > 50 µM | IC50 [14]: > 50 µM | IC50 [15]: > 50 µM | IC50 [16]: > 50 µM | IC50 [17]: > 50 µM | IC50 [18]: > 50 µM | IC50 [19]: > 50 µM | IC50 [20]: > 50 µM | IC50 [21]: > 50 µM | IC50 [22]: > 50 µM | IC50 [23]: > 50 µM | IC50 [24]: > 50 µM | IC50 [25]: > 50 µM | IC50 [26]: > 50 µM | AUC ([27]; IP): 15 µM·h | Cmax ([27]; IP): 3.26 µM | bioavailability ([27]; IP): 82% | half-life ([27]; IP): 4.75 h | AUC ([27]; PO): 12.2 µM·h | Cmax ([27]; PO): 2.92 µM | bioavailability ([27]; PO): 66% | half-life ([27]; PO): 3.93 h | expression of histone H3 acetylation [28]: upregulated | expression of p21 [28]: upregulated
